# Measurements: BindingDB's records for doi:10.1021/acsmedchemlett.8b00549 (Stellenbosch University, 2019)
# How the values were obtained:
# [1] = Inhibition of HIV1 reverse transcriptase K103N mutant in HIV1 infected HEK293T cells harboring luciferase gene assessed as reduction in viral infection after 48 hrs by Bright-Glo luciferase assay
# [2] = Inhibition of HIV1 reverse transcriptase V106M mutant in HIV1 infected HEK293T cells harboring luciferase gene assessed as reduction in viral infection after 48 hrs by Bright-Glo luciferase assay
# [3] = Inhibition of HIV1 reverse transcriptase Y188H mutant in HIV1 infected HEK293T cells harboring luciferase gene assessed as reduction in viral infection after 48 hrs by Bright-Glo luciferase assay
# [4] = Inhibition of wild-type HIV1 reverse transcriptase in HIV1 infected HEK293T cells harboring luciferase gene assessed as reduction in viral infection after 48 hrs by Bright-Glo luciferase assay
# [5] = Inhibition of HIV1 reverse transcriptase Y181C mutant in HIV1 infected HEK293T cells harboring luciferase gene assessed as reduction in viral infection after 48 hrs by Bright-Glo luciferase assay
# [6] = Inhibition of HIV1 reverse transcriptase Y188C mutant in HIV1 infected HEK293T cells harboring luciferase gene assessed as reduction in viral infection after 48 hrs by Bright-Glo luciferase assay
# [7] = Inhibition of HIV1 reverse transcriptase G190A mutant in HIV1 infected HEK293T cells harboring luciferase gene assessed as reduction in viral infection after 48 hrs by Bright-Glo luciferase assay
# [8] = Inhibition of HIV1 reverse transcriptase K103N/Y181C double mutant in HIV1 infected HEK293T cells harboring luciferase gene assessed as reduction in viral infection after 48 hrs by Bright-Glo luciferase assay
compound,measurement,setting,value
Cn1c(=O)[nH]c2cccc(Oc3cc(Cl)cc(C#N)c3)c21,IC50,[1],126 nM
same,IC50,[2],494 nM
same,IC50,[3],74 nM
same,IC50,[4],29 nM
same,IC50,[5],55 nM
same,IC50,[6],236 nM
same,IC50,[7],107 nM
CCn1c(=O)[nH]c2cccc(Oc3cc(C#N)cc(/C=C/C#N)c3)c21,IC50,[1],166 nM
same,IC50,[2],926 nM
same,IC50,[3],468 nM
same,IC50,[4],49 nM
same,IC50,[8],51 nM
same,IC50,[5],73 nM
same,IC50,[6],14 nM
same,IC50,[7],377 nM
CC1(C)OC(=O)Nc2cccc(Oc3cc(Cl)cc(C#N)c3)c21,IC50,[1],798 nM
same,IC50,[2],630 nM
same,IC50,[3],1150 nM
same,IC50,[4],21 nM
same,IC50,[8],894 nM
same,IC50,[5],28 nM
same,IC50,[6],7 nM
same,IC50,[7],2760 nM
CCn1c(=O)[nH]c2cccc(Oc3cc(Cl)cc(C#N)c3)c21,IC50,[1],111 nM
same,IC50,[2],293 nM
same,IC50,[3],415 nM
same,IC50,[4],26 nM
same,IC50,[8],52 nM
same,IC50,[5],18 nM
same,IC50,[6],7 nM
same,IC50,[7],126 nM
CCn1c(=O)[nH]c2cccc(Oc3ccccc3)c21,IC50,[4],3880 nM
CCC(c1ccccc1)n1c(=O)[nH]c2ccc(Cl)cc21 (stereo unspecified),IC50,[1],> 200 nM
same,IC50,[4],36 nM
same,IC50,[5],> 200 nM
CCOC(=O)c1[nH]c2ccc(Cl)cc2c1C(SC)c1ccccc1 (stereo unspecified),IC50,[4],39 nM
CCOC(=O)c1[nH]c2ccc(Cl)cc2c1C(OC)c1ccccc1 (stereo unspecified),IC50,[4],16 nM
CCCn1c(=O)[nH]c2cccc(Oc3cc(Cl)cc(C#N)c3)c21,IC50,[4],50 nM
CCn1c(=O)[nH]c2cccc(Oc3ccnc(Cl)c3)c21,IC50,[4],> 44100 nM
CCn1c(=O)[nH]c2cccc(Oc3cc(C#N)ccn3)c21,IC50,[4],1360 nM
CCOC(=O)c1[nH]c2ccc(Cl)cc2c1C(OC)c1cc(C)cc(C)c1 (stereo unspecified),IC50,[4],34 nM
CCn1c(=O)[nH]c2cccc(Oc3cccc4ccccc34)c21,IC50,[4],2270 nM
CCOC(=O)c1[nH]c2ccc(Cl)cc2c1C(SC)c1cc(C)cc(C)c1 (stereo unspecified),IC50,[4],60 nM
CCn1c(=O)[nH]c2cccc(Oc3ccnc(C#N)c3)c21,IC50,[4],13300 nM
CCn1c(=O)[nH]c2cccc(Oc3cc(C)cc(C)c3)c21,IC50,[4],303 nM
CCn1c(=O)[nH]c2cccc(Oc3cc(C#N)cc(C#N)c3)c21,IC50,[4],63 nM
